According to publication PMC3192848 (PLoS Pathogens, 2011):

Each compound was assayed against T1, EtMIC3-MAR1b (NMR construct) (Eimeria tenella, UniProt B6VCV4). Conditions: phosphate buffer pH 5.5; sialic acid contacts L175, Y178 and HLT motif.
T1 construct: gene mic3
Assay type: binding
For `CC(=O)N[C@H]1[C@H]([C@H](O)[C@H](O)CO)O[C@@](O[C@H]2[C@@H](O)[C@@H](CO)O[C@@H](O[C@H]3[C@H](O)[C@@H](NC(C)=O)C(O)O[C@@H]3CO)[C@@H]2O)(C(=O)O)C[C@@H]1O` (stereo partly drawn) [Siaα2–3Galβ1–4GlcNAc], the “isotope-filtered NMR NOESY; HADDOCK structure from 9 intermolecular NOEs” value was “intermolecular NOEs”.

These compounds were tested against T2, EtMIC3-MAR1b (thioredoxin-His fusion, microarray) (Eimeria tenella, UniProt B6VCV4). Conditions: lipid-linked probe immobilised at 5 fmol/spot; 40 µg/ml protein precomplexed with anti-His antibodies; ambient temperature.
T2 construct: gene mic3
Assay type: binding
With “NeuAcα-6Galβ-4GlcNAcβ-3Galβ-4Glc-DH [compound 79]” the “Fluorescence signal intensities / EtMIC3-MAR1b” value was 5,570 fluorescence units. “NeuAcα-3Galβ-3GlcNAcβ-3Galβ-4Glcß-C30 [compound 38]” was tested, and the “Fluorescence signal intensities / EtMIC3-MAR1b” value was 5,423 fluorescence units. In the case of GT1b [compound 109], the “Fluorescence signal intensities / EtMIC3-MAR1b” value is reported as 8,121 fluorescence units.

The compounds below were run against T3, TgMIC1-MARR (Toxoplasma gondii, UniProt O00834). Conditions: lipid-linked probe immobilised at 5 fmol/spot; 40 µg/ml protein precomplexed with anti-His antibodies; ambient temperature.
T3 construct: gene MIC1
T3 sequence (O00834 17-262): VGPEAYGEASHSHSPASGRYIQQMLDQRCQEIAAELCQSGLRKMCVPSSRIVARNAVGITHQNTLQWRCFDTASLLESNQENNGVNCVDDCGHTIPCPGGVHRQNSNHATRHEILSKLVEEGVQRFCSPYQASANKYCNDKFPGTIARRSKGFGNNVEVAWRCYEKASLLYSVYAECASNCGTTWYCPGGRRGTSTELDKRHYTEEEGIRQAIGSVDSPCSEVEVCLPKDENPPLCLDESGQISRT
Assay type: binding
With NeuGcα-6GalNAc-AO [compound 88] the “Fluorescence signal intensities / TgMIC1-MARR” value was 13,982 fluorescence units. With “NeuGcα-3Galβ-3GlcNAcβ-3Galβ-4Glcß-C30 [compound 39]” the “Fluorescence signal intensities / TgMIC1-MARR” value was 11,075 fluorescence units. NeuAcα-3Galß-4Glcß-Cer [compound 59] was tested, and the “Fluorescence signal intensities / TgMIC1-MARR” value was 4,327 fluorescence units. For “NeuAcα-3Galβ-3GlcNAcβ-3Galβ-4Glcß-C30 [compound 38]”, the “Fluorescence signal intensities / TgMIC1-MARR” value was 11,580 fluorescence units. With NeuGcα-3Galß-4Glcß-Cer [compound 60] the “Fluorescence signal intensities / TgMIC1-MARR” value was 12,526 fluorescence units.
